In article PMC6950567, “Evaluation of Marine Diindolinonepyrane in Vitro and in Vivo: Permeability Characterization in Caco-2 Cells Monolayer and Pharmacokinetic Properties in Beagle Dogs” (Marine Drugs, 2019):
Like-named read-outs stand apart in the source and are kept apart here.

Key:
[1] = tested on: Caco-2 cells monolayer; test: Caco-2 cells monolayer absorption and bidirectional transport experiment; assay type: in vitro ADME, human
Experimental: (§1) The samples included three control drugs (fenoterol, propranolol, and digoxin) and 2,5-BHPA. […] For transfer in the AP→BL direction, 0.075 mL drug solution was added to the AP side as the supply pool, and 0.25 mL HBSS solution was added to the BL side as the receiving pool. In the BL→AP direction, 0.25 mL compound solution was added to the BL side as the supply pool, and 0.075 mL HBSS solution was added to the AP side as the receiving pool. The transwell plate was then cultured in an incubator at 37 °C for 2 h. Samples on the AP side and BL side were collected, respectively. Then, acetonitrile containing an internal label was added to each upper chamber to lyse transport membranes. The total recovery was calculated by collecting the amount of lead compound absorbed on the membrane surface or accumulated in the cell. Finally, the concentration of each sample was calculated as the ratio of the peak area between the compound and the inner target through mass spectrum analysis (API 4000).
(§2) Papp = (dCr/dt) × Vr/(A × C0)(2) where dCr/dt is the cumulative compound concentration per unit of time (µM/s); Vr is the volume in the receiving hole (mL); A is the transport membrane area; and C0 is the compound initiation concentration (µM).

[2] = as above; assay type: in vitro ADME, human; conditions: human; for Papp A→B at 2 h, 2 µM: read-out: Mean Papp AP to BL; for Papp B→A at 2 h, 2 µM: read-out: Mean Papp BL to AP; for recovery at 2 h: direction not specified, read-out: total recovery rate of control drugs
Experimental: as §1, §2

[3] = tested on: Caco-2 cell model
[4] = 2 µM, 0.1% bull serum albumin added
[5] = Caco-2, 2 µM, 0.1% bull serum albumin added

With `C[C@H]1O[C@@H](O[C@H]2[C@@H](O)C[C@H](O[C@H]3[C@@H](O)C[C@H](O[C@H]4CC[C@@]5(C)[C@H](CC[C@@H]6[C@@H]5C[C@@H](O)[C@]5(C)[C@@H](C7=CC(=O)OC7)CC[C@]65O)C4)O[C@@H]3C)O[C@@H]2C)C[C@H](O)[C@@H]1O` [Digoxin, digoxin, reference compound] the “Recoveries AP to BL” value [1, 4] was 84.14 ± 3.13%, the “Recoveries BL to AP” value [1, 4] was 93.35 ± 3.56% and the “Total Recoveries AP to BL” value [1, 4] was 85.37 ± 3.52%. The “Total Recoveries BL to AP” value [1, 4] was 93.43 ± 4.63%, the “Recoveries AP to BL” value ([1]; 2 μM, no BSA) was 83.66 ± 3.14% and the “Recoveries BL to AP” value ([1]; 2 μM, no BSA) was 82.87 ± 4.38%. The “Total Recoveries AP to BL” value ([1]; 2 μM, no BSA) was 86.44 ± 3.51%, the “Total Recoveries BL to AP” value ([1]; 2 μM, no BSA) was 83.31 ± 2.40% and the efflux ratio at 2 h, 2 µM [2, 5] was 485. The Papp A→B at 2 h, 2 µM [2, 5] was 0.23 ± 0.01 nm/s, the Papp B→A at 2 h, 2 µM [2, 5] was 104 ± 9.11 nm/s and the efflux ratio at 2 h, 2 µM ([2]; Caco-2, 2 μM, no BSA) was 260. For the same compound, the Papp A→B at 2 h, 2 µM ([2]; Caco-2, 2 μM, no BSA, 2 h) was 0.33 ± 0.03 nm/s, the Papp B→A at 2 h, 2 µM ([2]; Caco-2, 2 μM, no BSA, 2 h) was 90.5 ± 6.2 nm/s and the recovery at 2 h ([2]; Caco-2, text summary, no BSA) was greater than 83%.

With `CC(Cc1ccc(O)cc1)NCC(O)c1cc(O)cc(O)c1` (centres unmarked) [Fenoterol, fenoterol, reference compound] the “Recoveries AP to BL” value [1, 4] was 94.38 ± 5.14%, the “Total Recoveries AP to BL” value [1, 4] was 96.16 ± 6.72% and the “Recoveries AP to BL” value ([1]; 2 μM, no BSA) was 87.67 ± 1.24%. The “Total Recoveries AP to BL” value ([1]; 2 μM, no BSA) was 90.92 ± 4.23%, the Papp A→B at 2 h, 2 µM [2, 5] was 0.91 ± 0.12 nm/s and the Papp A→B at 2 h, 2 µM ([2]; Caco-2, 2 μM, no BSA, 2 h) was 0.55 ± 0.08 nm/s. The recovery at 2 h ([2]; Caco-2, no BSA) was greater than 83%.

In the case of `CC(C)NCC(O)COc1cccc2ccccc12` (centres unmarked) [Propranolol, propranolol, reference compound], the “total recovery rate AP→BL” value ([1]; Caco-2) is reported as 100% and the “total recovery rate of control drugs” value ([1]; Caco-2) is reported as “more than 83%”.

For `NNC(=O)NN1C(=O)c2cc(S(=O)(=O)[O-])cc3c(N)c(S(=O)(=O)[O-])cc(c23)C1=O.[Li+].[Li+]` [fluorescence yellow], the “Papp of fluorescence yellow” value [3] was 0.15 ± 0.027 × 10^−6 cm·s^−1 and the transmittance [3] was 0.04 ± 0.005%.
